Reference: patent US8278072B1, “Method for synthesis of sialylated products using reversible sialylation” (Health Research, Inc., priority 2007, dated 2012)

Biological target: T1, ST3Gal-II (Rattus norvegicus, UniProt Q11205)
T1 construct: purchased Calbiochem
T1 sequence (Q11205 1-350): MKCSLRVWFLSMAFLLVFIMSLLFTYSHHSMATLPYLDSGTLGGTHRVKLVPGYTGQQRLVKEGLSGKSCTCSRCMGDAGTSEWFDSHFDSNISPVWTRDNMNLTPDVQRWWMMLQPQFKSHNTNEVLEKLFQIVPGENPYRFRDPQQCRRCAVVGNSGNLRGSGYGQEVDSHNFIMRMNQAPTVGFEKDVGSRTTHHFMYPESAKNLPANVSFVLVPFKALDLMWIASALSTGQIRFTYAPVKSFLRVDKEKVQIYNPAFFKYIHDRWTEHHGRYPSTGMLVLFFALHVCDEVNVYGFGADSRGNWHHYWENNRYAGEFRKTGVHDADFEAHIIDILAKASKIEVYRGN
Assay: Reverse sialylation: transfer of [9-3H]NeuAc from sialylated donor to nucleotide phosphates (WGA-agarose)
Format: biochemical
Settings: donor [1]; for Incorporation of [9-3H]NeuAc expressed as percent of the CPM incorporated into 5′-CMP: nucleotide phosphate 1 mM as acceptor
Description: FIG. 1. Nucleotide phosphates as acceptors of radioactivity from [9-^3H]NeuAcα2,3Galβ,13 (GlcNAcβ1,6)GalNAcα-O—Al (Al=Allyl) [[9-^3H] [1]] in the presence of ST3Gal-II (scheme-I). Reaction mixtures (RM) with the following composition were incubated at 37° C. for 21 hours in 100 mM NaCa Codylate buffer, pH6.0: i) RM containing 150 μM (0.4 μCi) [[9-^3H] [1]] (donor) along with 0.8 mU ST3Gal-II but no 5″-CMP; and, ii) RM containing [[9-^3H] [1]] and 1.0 mM 5′-CMP, along with ST3Gal-II. Products formed were fractionated on a WGA-agarose column. […] The feasibility of the reverse reaction is well established in literature. Schematic symbols: ♦:sialic acid, ●:Gal, □:GalNAc, ▪:GlcNAc.
All enzymatic sialylation reactions were typically carried out in 100 mM NaCa Codylate buffer pH6.0 in the presence of enzyme, synthetic acceptor (at 7.5 mM or as indicated in each experiment) and 0.2 μCi CMP-[9-^3H]NeuAc (NEN-Dupont, 29 mCi/μmol). The concentration of total CMP-NeuAc was adjusted in individual reactions by supplementing with additional cold CMP-NeuAc. Reaction volume was 20 μl. Products formed were separated using four different chromatography procedures (below). In all cases, the radioactive content of isolated products was determined by using 3a70 scintillation cocktail (Research Products International, Mount Prospect, Ill.), and a Beckman LS6500 scintillation counter.
a) Biogel P2 chromatography: A Biogel P2 column (Fine Mesh; 1.0×116.0 cm) was used with 0.1 M pyridine acetate (pH5.4) as the eluent at room temperature. […] Fractions of 1.0 ml were collected. The bound material was then eluted with 0.5M GlcNAc or 0.2M Gal in the same buffer. […] Calculation of equilibrium constant, Keq: Equilibrium constant was calculated for selected reversible bimolecular reactions that are denoted by:
Cloned and purified rat sialyltransferase α2,3(O)ST (ST3Gal-II) is used in many experiments presented in this manuscript. […] In order to determine if the sialylation reaction is reversible (FIG. 1), [9-^3H]NeuAcα2,3Galβ,13(GlcNAcβ1,6)GalNAcα-O—Al (Al=Allyl) [9-^3H[1]] was prepared using ST3Gal-II in the presence of CMP-[9-^3H]NeuAc and the trisaccharide acceptor Galβ1,3(GlcNAcβ1,6)GalNAcα-O—Al, and the radiolabeled product was isolated using Biogel P2 chromatography. […] Two different reaction mixtures were then prepared with: i) [9-^3H[1]] and ST3Gal-II but without 5″-CMP; and ii) [9-^3H[1]] and 5″-CMP along with ST3Gal-II.

Row | Structure (SMILES) | Incorporation of [9-3H]NeuAc expressed as percent of the CPM incorporated into 5′-CMP | Incorporation of [9-3H]NeuAc (1 mM nucleotide phosphate)
1 | Nc1ccn([C@@H]2O[C@H](COP(=O)(O)OP(=O)(O)O)[C@@H](O)[C@H]2O)c(=O)n1 [5′-CDP] | 28.4% | –
2 | Nc1ccn([C@@H]2O[C@H](COP(=O)(O)O)[C@@H](O)[C@H]2O)c(=O)n1 [5′-CMP, Cytidine 5′-monophosphate] | 100.0% | (44197 CPM)
